# Source: PubChem BioAssay (NCI)
#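 The compound was tested at five concentrations on cells cultured in 96-well plates, with a 48-hour exposure period. GI50 is the concentration that inhibits growth by half. TGI: concentration producing complete growth inhibition.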
# How the values were obtained:
# Assay in all cases: growth of human tumour cells (NCI), 48 h
# HCC-2998 colon = test system: HCC-2998 colon
# HS 578T breast = test system: HS 578T breast
# RPMI-8226 leukemia = test system: RPMI-8226 leukemia
# CAKI-1 renal = test system: CAKI-1 renal
# SNB-19 CNS = test system: SNB-19 CNS
# MALME-3M melanoma = test system: MALME-3M melanoma
# HCT-116 colon = test system: HCT-116 colon
# SK-OV-3 ovarian = test system: SK-OV-3 ovarian
# HOP-92 NSCLC = test system: HOP-92 NSCLC
# UACC-62 melanoma = test system: UACC-62 melanoma
# OVCAR-5 ovarian = test system: OVCAR-5 ovarian
# KM12 colon = test system: KM12 colon
# A498 renal = test system: A498 renal
# HT29 colon = test system: HT29 colon
# MCF7 breast = test system: MCF7 breast
# DU-145 prostate = test system: DU-145 prostate
# MDA-MB-231 breast = test system: MDA-MB-231 breast
# COLO 205 colon = test system: COLO 205 colon
# SF-268 CNS = test system: SF-268 CNS
# HCT-15 colon = test system: HCT-15 colon
# SK-MEL-28 melanoma = test system: SK-MEL-28 melanoma
# T-47D breast = test system: T-47D breast
# TK-10 renal = test system: TK-10 renal
# SN12C renal = test system: SN12C renal
# MDA-MB-435 = test system: MDA-MB-435
# BT-549 breast = test system: BT-549 breast
# SF-539 CNS = test system: SF-539 CNS
# NCI-H226 lung = test system: NCI-H226 lung
# MOLT-4 leukemia = test system: MOLT-4 leukemia
# OVCAR-3 ovarian = test system: OVCAR-3 ovarian
# U251 CNS = test system: U251 CNS
# M14 melanoma = test system: M14 melanoma
# RXF 393 renal = test system: RXF 393 renal
# SR leukemia = test system: SR leukemia
# SF-295 CNS = test system: SF-295 CNS
# SK-MEL-5 melanoma = test system: SK-MEL-5 melanoma
# HOP-62 NSCLC = test system: HOP-62 NSCLC
# OVCAR-4 ovarian = test system: OVCAR-4 ovarian
# SW-620 colon = test system: SW-620 colon
# ACHN renal = test system: ACHN renal
# SNB-75 CNS = test system: SNB-75 CNS
# NCI-H522 lung = test system: NCI-H522 lung
# SK-MEL-2 melanoma = test system: SK-MEL-2 melanoma
# OVCAR-8 ovarian = test system: OVCAR-8 ovarian
# PC-3 prostate = test system: PC-3 prostate
# K-562 leukemia = test system: K-562 leukemia
# NCI-H460 lung = test system: NCI-H460 lung
# NCI/ADR-RES ovarian = test system: NCI/ADR-RES ovarian
# HL-60(TB) leukemia = test system: HL-60(TB) leukemia
# LOX IMVI melanoma = test system: LOX IMVI melanoma
# EKVX NSCLC = test system: EKVX NSCLC
# 786-0 renal = test system: 786-0 renal
# IGROV1 ovarian = test system: IGROV1 ovarian
# CCRF-CEM leukemia = test system: CCRF-CEM leukemia
# NCI-H23 lung = test system: NCI-H23 lung
# UO-31 renal = test system: UO-31 renal
# A549 NSCLC = test system: A549 NSCLC
# UACC-257 melanoma = test system: UACC-257 melanoma
structure (smiles),measurement,setting,value
Nc1nonc1C(=Nc1ccc(F)c(Cl)c1)NO,GI50,HCC-2998 colon,> 91.5 µM
same,TGI,HCC-2998 colon,> 100 µM
same,GI50,HS 578T breast,49.5 µM
same,TGI,HS 578T breast,> 100 µM
same,GI50,RPMI-8226 leukemia,42.3 µM
same,TGI,RPMI-8226 leukemia,> 100 µM
same,GI50,CAKI-1 renal,28.8 µM
same,TGI,CAKI-1 renal,> 100 µM
same,GI50,SNB-19 CNS,> 94.2 µM
same,TGI,SNB-19 CNS,> 100 µM
same,GI50,MALME-3M melanoma,95.2 µM
same,TGI,MALME-3M melanoma,> 100 µM
same,GI50,HCT-116 colon,51.5 µM
same,TGI,HCT-116 colon,> 100 µM
same,GI50,SK-OV-3 ovarian,49.3 µM
same,TGI,SK-OV-3 ovarian,> 100 µM
same,GI50,HOP-92 NSCLC,12.6 µM
same,TGI,HOP-92 NSCLC,54.9 µM
same,GI50,UACC-62 melanoma,29.8 µM
same,TGI,UACC-62 melanoma,> 100 µM
same,GI50,OVCAR-5 ovarian,53.2 µM
same,TGI,OVCAR-5 ovarian,> 100 µM
same,GI50,KM12 colon,79 µM
same,TGI,KM12 colon,> 100 µM
same,GI50,A498 renal,21.1 µM
same,TGI,A498 renal,> 86.9 µM
same,GI50,HT29 colon,> 100 µM
same,TGI,HT29 colon,> 100 µM
same,GI50,MCF7 breast,41.6 µM
same,TGI,MCF7 breast,> 100 µM
same,GI50,DU-145 prostate,63.7 µM
same,TGI,DU-145 prostate,> 100 µM
same,GI50,MDA-MB-231 breast,29.7 µM
same,TGI,MDA-MB-231 breast,> 100 µM
same,GI50,COLO 205 colon,60.5 µM
same,TGI,COLO 205 colon,> 100 µM
same,GI50,SF-268 CNS,39.4 µM
same,TGI,SF-268 CNS,> 100 µM
same,GI50,HCT-15 colon,47.3 µM
same,TGI,HCT-15 colon,> 100 µM
same,GI50,SK-MEL-28 melanoma,> 100 µM
same,TGI,SK-MEL-28 melanoma,> 100 µM
same,GI50,T-47D breast,20.4 µM
same,TGI,T-47D breast,> 100 µM
same,GI50,TK-10 renal,55.9 µM
same,TGI,TK-10 renal,> 100 µM
same,GI50,SN12C renal,45.8 µM
same,TGI,SN12C renal,> 100 µM
same,GI50,MDA-MB-435,> 88.4 µM
same,TGI,MDA-MB-435,> 100 µM
same,GI50,BT-549 breast,29.8 µM
same,TGI,BT-549 breast,> 100 µM
same,GI50,SF-539 CNS,54.2 µM
same,TGI,SF-539 CNS,> 100 µM
same,GI50,NCI-H226 lung,68 µM
same,TGI,NCI-H226 lung,> 100 µM
same,GI50,MOLT-4 leukemia,43.4 µM
same,TGI,MOLT-4 leukemia,> 100 µM
same,GI50,OVCAR-3 ovarian,43.1 µM
same,TGI,OVCAR-3 ovarian,> 100 µM
same,GI50,U251 CNS,> 75.7 µM
same,TGI,U251 CNS,> 100 µM
same,GI50,M14 melanoma,51.9 µM
same,TGI,M14 melanoma,> 100 µM
same,GI50,RXF 393 renal,33.6 µM
same,TGI,RXF 393 renal,> 100 µM
same,GI50,SR leukemia,> 63.2 µM
same,TGI,SR leukemia,> 100 µM
same,GI50,SF-295 CNS,37.9 µM
same,TGI,SF-295 CNS,> 100 µM
same,GI50,SK-MEL-5 melanoma,41.4 µM
same,TGI,SK-MEL-5 melanoma,> 100 µM
same,GI50,HOP-62 NSCLC,28 µM
same,TGI,HOP-62 NSCLC,> 100 µM
same,GI50,OVCAR-4 ovarian,25.3 µM
same,TGI,OVCAR-4 ovarian,> 100 µM
same,GI50,SW-620 colon,> 100 µM
same,TGI,SW-620 colon,> 100 µM
same,GI50,ACHN renal,32.7 µM
same,TGI,ACHN renal,> 100 µM
same,GI50,SNB-75 CNS,14.2 µM
same,TGI,SNB-75 CNS,76.5 µM
same,GI50,NCI-H522 lung,> 47.1 µM
same,TGI,NCI-H522 lung,> 100 µM
same,GI50,SK-MEL-2 melanoma,65 µM
same,TGI,SK-MEL-2 melanoma,> 100 µM
same,GI50,OVCAR-8 ovarian,71.1 µM
same,TGI,OVCAR-8 ovarian,> 100 µM
same,GI50,PC-3 prostate,42.4 µM
same,TGI,PC-3 prostate,> 100 µM
same,GI50,K-562 leukemia,58.8 µM
same,TGI,K-562 leukemia,> 100 µM
same,GI50,NCI-H460 lung,> 93.2 µM
same,TGI,NCI-H460 lung,> 100 µM
same,GI50,NCI/ADR-RES ovarian,49.2 µM
same,TGI,NCI/ADR-RES ovarian,> 100 µM
same,GI50,HL-60(TB) leukemia,62.8 µM
same,TGI,HL-60(TB) leukemia,> 100 µM
same,GI50,LOX IMVI melanoma,40 µM
same,TGI,LOX IMVI melanoma,> 100 µM
same,GI50,EKVX NSCLC,25.1 µM
same,TGI,EKVX NSCLC,> 100 µM
same,GI50,786-0 renal,63.3 µM
same,TGI,786-0 renal,> 100 µM
same,GI50,IGROV1 ovarian,28.9 µM
same,TGI,IGROV1 ovarian,> 100 µM
same,GI50,CCRF-CEM leukemia,98.3 µM
same,TGI,CCRF-CEM leukemia,> 100 µM
same,GI50,NCI-H23 lung,46.6 µM
same,TGI,NCI-H23 lung,> 100 µM
same,GI50,UO-31 renal,12.6 µM
same,TGI,UO-31 renal,97.5 µM
same,GI50,A549 NSCLC,> 66 µM
same,TGI,A549 NSCLC,> 100 µM
O=C1C(Cl)=C(N2CCN(CCOCCO)CC2)C(=O)c2ncccc21,TGI,HCC-2998 colon,> 10 µM
same,TGI,HS 578T breast,> 10 µM
same,TGI,RPMI-8226 leukemia,> 10 µM
same,TGI,CAKI-1 renal,> 10 µM
same,TGI,SNB-19 CNS,> 10 µM
same,TGI,MALME-3M melanoma,> 10 µM
same,TGI,HCT-116 colon,> 10 µM
same,TGI,SK-OV-3 ovarian,> 10 µM
same,TGI,HOP-92 NSCLC,3.29 µM
same,TGI,UACC-62 melanoma,> 10 µM
same,TGI,OVCAR-5 ovarian,> 10 µM
same,TGI,KM12 colon,> 10 µM
same,TGI,A498 renal,> 10 µM
same,TGI,HT29 colon,> 10 µM
same,TGI,MCF7 breast,> 10 µM
same,TGI,DU-145 prostate,> 10 µM
same,TGI,MDA-MB-231 breast,> 10 µM
same,TGI,COLO 205 colon,> 10 µM
same,TGI,SF-268 CNS,> 10 µM
same,TGI,HCT-15 colon,> 10 µM
same,TGI,SK-MEL-28 melanoma,> 10 µM
same,TGI,T-47D breast,5.51 µM
same,TGI,TK-10 renal,> 10 µM
same,TGI,SN12C renal,> 10 µM
same,TGI,MDA-MB-435,7.05 µM
same,TGI,BT-549 breast,> 10 µM
same,TGI,SF-539 CNS,> 10 µM
same,TGI,NCI-H226 lung,> 10 µM
same,TGI,UACC-257 melanoma,> 10 µM
same,TGI,MOLT-4 leukemia,> 10 µM
same,TGI,OVCAR-3 ovarian,> 10 µM
same,TGI,U251 CNS,> 10 µM
same,TGI,M14 melanoma,> 10 µM
same,TGI,RXF 393 renal,9.68 µM
same,TGI,SR leukemia,> 10 µM
same,TGI,SF-295 CNS,> 10 µM
same,TGI,SK-MEL-5 melanoma,> 10 µM
same,TGI,HOP-62 NSCLC,> 10 µM
same,TGI,OVCAR-4 ovarian,> 10 µM
same,TGI,SW-620 colon,> 10 µM
same,TGI,ACHN renal,> 10 µM
same,TGI,SNB-75 CNS,> 10 µM
same,TGI,NCI-H522 lung,6.33 µM
same,TGI,SK-MEL-2 melanoma,> 10 µM
same,TGI,OVCAR-8 ovarian,> 10 µM
same,TGI,PC-3 prostate,> 10 µM
same,TGI,K-562 leukemia,> 10 µM
same,TGI,NCI-H460 lung,> 10 µM
same,TGI,NCI/ADR-RES ovarian,> 10 µM
same,TGI,HL-60(TB) leukemia,> 10 µM
same,TGI,LOX IMVI melanoma,> 10 µM
same,TGI,EKVX NSCLC,> 10 µM
same,TGI,786-0 renal,> 10 µM
same,TGI,IGROV1 ovarian,> 10 µM
same,TGI,CCRF-CEM leukemia,> 10 µM
same,TGI,NCI-H23 lung,> 10 µM
same,TGI,A549 NSCLC,> 10 µM
